Laboratory results reported in PMC9600708 (Molecular cancer therapeutics, 2022).
“Also recorded” adds a separate entry of the source. One block for each compound: values may come before it.

Columns and labels:
CAL-120 cell line = test: SRB proliferation assay; type: cell-based, human; conditions: read-out: IC50 proliferation; CAL-120, SRB, 72 hours
MDA-MB-231 cell line = test: SRB proliferation assay; type: cell-based, human; conditions: read-out: IC50 proliferation; MDA-MB-231, SRB, 72 hours
HCC1395 cell line = test: SRB proliferation assay; type: cell-based, human; conditions: read-out: IC50 proliferation, 72 hours
Hs578T cell line = test: SRB proliferation assay; type: cell-based, human; conditions: read-out: IC50 proliferation, 72 hours
CAL-120 cells = test: Cell cycle analysis; type: cell-based, human; conditions: CAL-120, 24 hours, 0-200 nM
[1] = tested on: sensitive and resistant TNBC cell lines; test: Immunoblotting of protein acetylation and p21; type: cell-based, human; conditions: 24 hours, immunoblot
HCT-116 xenografts = test: HCT-116 xenograft efficacy study; type: in vivo; conditions: for TGI compared to vehicle control: HCT-116 xenograft
[2] = tested on: acetyl-histone H3 and acetyl H3K9; test: HCT-116 xenograft pharmacodynamics; type: in vivo, BALB/c nude mice
[3] = Plasma and tumor pharmacokinetics of OKI-005 in HCT-116 tumor-bearing mice; type: in vivo, BALB/c nude mice
[4] = tested on: luciferase-labeled MDA-MB-231 cells; test: MDA-MB-231 luciferase-labeled metastasis model; type: in vivo, BALB/c nude mice; conditions: OKI-005 10 mg/kg IP 3 times a week for 30 days
[5] = Plasma persistence of OKI-006 across preclinical models; type: in vivo; conditions: depending on the dose and model (mouse vs. rat vs. dog)
HDAC-1 = conditions: read-out: IC50 HDAC-1; cell-free biochemical assay, previously published; cited from earlier work
HDAC-2 = conditions: read-out: IC50 HDAC-2; cell-free biochemical assay, previously published; cited from earlier work
HDAC-3 = conditions: read-out: IC50 HDAC-3; cell-free biochemical assay, previously published; cited from earlier work
HDAC-8 = conditions: read-out: IC50 HDAC-8; cell-free biochemical assay, previously published; cited from earlier work
HDAC-6 = conditions: read-out: IC50 HDAC-6; cell-free biochemical assay, previously published; cited from earlier work
HDAC-4 = conditions: read-out: IC50 HDAC-4; cell-free biochemical assay, previously published; cited from earlier work
HDAC-5 = conditions: read-out: IC50 HDAC-5; cell-free biochemical assay, previously published; cited from earlier work
HDAC-7 = conditions: read-out: IC50 HDAC-7; cell-free biochemical assay, previously published; cited from earlier work
HDAC-9 = conditions: read-out: IC50 HDAC-9; cell-free biochemical assay, previously published; cited from earlier work
MDA-MB-231 xenograft [6] = test: MDA-MB-231 xenograft efficacy study; type: in vivo, BALB/c nude mice; conditions: OKI-179 40-80 mg/kg PO daily, 120 mg PO every other day
acetylated histone H3 = test: MDA-MB-231 xenograft pharmacodynamics; type: in vivo, nude mice; conditions: OKI-179 40, 60 or 80 mg/kg PO daily x 3 or 10 days
advanced solid tumors = conditions: continuous dosing, patients with advanced solid tumors; cited from earlier work
MDA-MB-231 xenograft [7] = conditions: addition of OKI-179 to nivolumab; cited from earlier work
MCF-7 xenograft = test: MCF-7 xenograft, OKI-179 in combination with tamoxifen; conditions: OKI-179 60 mg/kg PO 5 days on 2 days off, tamoxifen 25 mg/kg SQ 3 times a week

SMILES: CCCCCCCC(=O)SCC/C=C/[C@@H]1CC(=O)NCc2nc(cs2)C(=O)NC(C)(C)C(=O)N[C@@H](C(C)C)C(=O)O1 [OKI-005]
IC50 (CAL-120 cell line): < 100 nM | IC50 (MDA-MB-231 cell line): < 100 nM | IC50 (HCC1395 cell line): > 500 nM | IC50 (Hs578T cell line): > 500 nM | cell cycle effect (G1 and S phase fraction) (CAL-120 cells): trend towards an increase in G1 and a decrease in the cell fraction in S phase | acetylated histone-H3 and p21 ([1]; 0-500 nM): concentration-dependent increase | acetylated α-tubulin ([1]; highest dose levels): small increase | TGI compared to vehicle control (HCT-116 xenografts; OKI-005 30 mg/kg, P = 0.025): 28.1% | body weight / tolerability (HCT-116 xenografts; OKI-005 100 mg/kg PO daily, mice, 100 mg/kg): weight loss related to treatment requiring dose reduction; also recorded: dose-limiting treatment-related toxicity | TGI compared to vehicle control (HCT-116 xenografts; OKI-005 100 mg/kg, P < 0.001): 75.6% | acetyl-histone H3 and acetyl H3K9 in tumor ([2]; 1 hour post-dose, HCT-116 xenograft): dose-dependent increase | time of highest acetyl-Histone H3 and acetyl H3K9 levels post-treatment ([2]; OKI-005 100 mg/kg): 4 h | time of return of acetyl-Histone H3 and acetyl H3K9 to baseline post-dose ([2]; OKI-005 100 mg/kg): 24 h | half-life in plasma ([3]; PO dosing of OKI-005, metabolite OKI-006 measured, HCT-116 tumor-bearing mice): < 2 h | primary tumor growth and metastasis (number of thoracic metastasis) [4]: statistically significant inhibition

persistence of plasma concentrations > 100 nM following a single dose [5]: 4 to 12 h
SMILES: CC(C)[C@@H]1NC(=O)C(C)(C)NC(=O)c2csc(n2)CNC(=O)C[C@@H](/C=C/CCS)OC1=O [OKI-006]
tumor concentrations versus plasma levels ([3]; OKI-006 after single dose of OKI-005 PO or IP): exceeded plasma levels at all time points | IC50 (HDAC-1): 1.2 nM | IC50 (HDAC-2): 2.4 nM | IC50 (HDAC-3): 2 nM | IC50 (HDAC-8): 47 nM | IC50 (HDAC-6): 47 nM | IC50 (HDAC-4): > 1000 nM | IC50 (HDAC-5): > 1000 nM | IC50 (HDAC-7): > 1000 nM | IC50 (HDAC-9): > 1000 nM

SMILES: CC(C)[C@H](N)C(=O)SCC/C=C/[C@@H]1CC(=O)NCc2nc(cs2)C(=O)NC(C)(C)C(=O)N[C@@H](C(C)C)C(=O)O1 [OKI-179]
body weight / tolerability (HCT-116 xenografts; OKI-179 100 mg/kg oral daily, animals): weight loss | tumor growth at day 24 (HCT-116 xenografts; OKI-179 40-80 mg/kg PO daily and 120 mg PO every other day, all doses and schedules): statistically significant decreased tumor growth | tumor growth inhibition (MDA-MB-231 xenograft [6]): statistically significant tumor growth inhibition at higher doses | acetylated histone H3 in tumor (acetylated histone H3): increase in acetylated histone H3 | dose-limiting toxicity (advanced solid tumors): dose-limiting thrombocytopenia | tumor growth inhibition and T-cell activation (MDA-MB-231 xenograft [7]): improved tumor growth inhibition and increased T-cell activation | tumor growth inhibition (MCF-7 xenograft): active

SMILES: CC/C(=C(\c1ccccc1)c1ccc(OCCN(C)C)cc1)c1ccccc1 [tamoxifen, reference compound]
tumor growth inhibition (MCF-7 xenograft): active
